Article PMC11249626, “Fluorophore-Labeled Pyrrolones Targeting the Intracellular Allosteric Binding Site of the Chemokine Receptor CCR1” (ACS Pharmacology & Translational Science, 2024)
Like-named read-outs stand apart in the source and are kept apart here.

Biological target: T1, human chemokine receptor CCR1 (Homo sapiens, UniProt P32246)
T1 construct: expressed in transfected cells; host or cells: HEK293T, transient
T1 sequence (P32246 1-355): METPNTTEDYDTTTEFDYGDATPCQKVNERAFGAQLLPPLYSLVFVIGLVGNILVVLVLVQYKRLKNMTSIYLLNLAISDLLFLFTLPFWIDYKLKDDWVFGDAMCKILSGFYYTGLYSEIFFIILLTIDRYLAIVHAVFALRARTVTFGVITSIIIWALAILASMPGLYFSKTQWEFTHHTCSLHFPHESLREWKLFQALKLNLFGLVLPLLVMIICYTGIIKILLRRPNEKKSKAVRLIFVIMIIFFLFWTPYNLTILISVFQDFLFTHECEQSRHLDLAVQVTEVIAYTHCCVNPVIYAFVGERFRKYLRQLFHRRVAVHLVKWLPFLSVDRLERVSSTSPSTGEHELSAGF
Assay: Cellular NanoBiT miniGi recruitment assay
Format: cell-based
Conditions: in the presence of CCL5 (3 nM)
Protocol: Technologies) for 20 min.
Cellular NanoBiT miniGi recruitment assay s: Chemokine-induced Gi recruitment to the chemokine receptor CCR1 was monitored using a nanoluciferase complementation -based assay (NanoBiT, Promega). 20 5 x 10^6 HEK293T cells were plated in 10 cm dishes and cultured for 24 h before transfection with vectors encoding for the human chemokine receptor CCR1 C-terminally fused with SmBiT and miniGi (mG, engineered GTPase domain of Gα subunit) N-terminally fused with LgBiT. 24 h after transfection cells were harvested, distributed into white 96 -well plates (5 × 10^4 cells per well) and incubated for 1 h at 37 °C with compound 23 at concentrations ranging from 10 nM to 100 µM. The endogenous chemokine ligand CCL5 (3 nM, for CCR1) was then added, and luminescence generated upon nanoluciferase complementation in the presence of coelenterazine H was measured with a Mithras LB940 luminometer (Berthold Technologies) for 20 min. […]
Finally, the top 5% of the identified hits were subsequently docked to a homology model of CCR1 (vide infra). After visual examination of the obtained binding modes 24 hit compounds were identified for further investigation .
Molecular docking: For the docking studies in the course of our virtual screening campaign, the CCR1 protein was […]
27, 28 CCR1 structure was optimized using the Quickprep and structure preparation wizard in MOE 24 using CHARMM27 forcefield. The protein was saved in mol2 format and loaded in GOLD.25, 26 The amino acids defining the IABS were listed in a text file to define the docking cavity. 50 GA runs were performed for docking CCR2-RA-[R] (4-[R]) and SN_12 (43), with the generated solutions clustered based on their RMSD with the threshold set to 0.75 Å using the complete linkage method. Docking runs were performed using ChemScore. […]

IC50 (read-out: IC50, miniGi recruitment): 68.9 µM
IC50 (read-out: pIC50, miniGi recruitment (converted)): 67.6 µM
Compound: O=C(C1=C(O)C(=O)N(CCc2ccc(O)cc2)C1c1ccc(F)cc1)c1ccccc1 (racemic) [compound 23]
